According to the supplement of paper PMC3974653:
Counter-ions that a name gives are not always drawn.

What follows are molecules tested on MTT (mouse pheochromocytoma) (assay: IC50 of cell viability (ATP content)). Details: (24 or 48 h).
Outline: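 Cells of the MTT mouse pheochromocytoma line, 5 µl per well at 200,000 cells/ml, were grown overnight at 37°C, 5% CO2 in white 1536-well plates with DMEM, 5% FBS and 1% horse serum. Pintool transfer then delivered 23 nl of library compound in DMSO, giving 8 final concentrations from 0.5 nM to 46 µM, for an exposure of 24 or 48 hrs. Luminescence from CellTiter-Glo was read after 15 minutes and referenced to positive-control wells (100%) and DMSO wells (0%). IC50 was calculated with a four-parameter logistic fit.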

SMILES | IC50 of cell viability [µM]
O=C(CCl)c1ccc(Oc2ccc(C(=O)CCl)cc2)cc1 [Clofenoxyde] | > 46
S=P(N1CC1)(N1CC1)N1CC1 [Thiotepa] | > 46
N=C(N)NCCCCNC(=N)N.O=[S+]([O-])(O)O [ARCAINE SULFATE] | > 46
CN(C)c1ccc(/N=N/S(=O)(=O)[O-])cc1 [Fenaminosulf] | > 46
CCCCOC(=O)c1ccccc1C(=O)OCc1ccccc1 [Butyl benzyl phthalate] | > 46
[S]=[Sb+]([S-])[S][Sb+](=[S])[S-] [ANTIMONY PENTASULFIDE] | > 46
NCCc1c[nH]cn1 [HISTAMINE] | > 46
C[C@]12CCC(=O)C[C@@H]1CC[C@@H]1[C@@H]2CC[C@]2(C)C=CC[C@@H]12 [5A-ANDROSTA-16-ENE-3-ONE] | > 46
NCCc1ccc(O)cc1 [4-HYDROXYPHENETHYLAMINE] | > 46
IC(I)I [Iodoform] | > 46
CC1(C)C2CC[C@]1(C)[C@@H](O)C2 [BORNEOL] | > 46
O=P(O)(O)OP(=O)(O)O [Phosphotex] | > 46
Nc1ccccc1.O=[N+]([O-])O [Anilinium nitrate] | > 46
Nc1ccc(Sc2ccc(N)cc2)cc1 [4,4'-Thiodianiline] | > 46
Oc1cc(Cl)ccc1Oc1ccc(Cl)cc1Cl [Triclosan] | > 46

Next, values leading:

IC50 of cell viability [µM] | SMILES
> 46 | CCN(CCO)CCCC(C)Nc1ccnc2cc(Cl)ccc12 (configuration not stated) [HYDROXYCHLOROQUINE SULFATE]
> 46 | COc1cc2[nH]c(C)c(CCN3CCN(c4ccccc4)CC3)c2cc1OC [Equipertine hydrochloride]
> 46 | CC(C)(C)CC(C)(C)c1ccc(O)c(-n2nc3ccccc3n2)c1 [OCTRIZOLUM]
> 46 | CCc1cc(C(N)=S)ccn1 [Ethionamide]
> 46 | CCOC(=O)OCC/C(SC(=O)OCC)=C(\C)N(C=O)Cc1cnc(C)nc1N [CETOTIAMINE HYDROCHLORIDE]
> 46 | c1ccc2c(CC3=NCCN3)cccc2c1 [NAPHAZOLINE]
> 46 | COc1ccc(C(Cl)=C(c2ccc(OC)cc2)c2ccc(OC)cc2)cc1 [Chlorotrianisene]
> 46 | O=C(NN1CCCC1)N[S+](=O)([O-])c1ccc(Cl)cc1 [GLYCLOPYRAMIDE]
> 46 | CCOc1ccc(/N=C(\C)Nc2ccc(OCC)cc2)cc1 [Phenacaine hydrochloride]
> 46 | O=C(O)Cc1csc(-c2ccc(Cl)cc2)n1 [Fenclozic acid]
> 46 | CC(C)C(=O)OCC(=O)[C@@]12OC(C3CCCCC3)O[C@@H]1CC1C3CCC4=CC(=O)C=C[C@]4(C)C3[C@@H](O)C[C@@]12C (some centres not stated) [CICLESONIDE]
> 46 | CCN(CC)CCOc1ccc2c(c1)C(=O)c1cc(OCCN(CC)CC)ccc1-2 [TILORONE]
> 46 | OCCOC[C@H]1O[C@H](OCCO)[C@H](OCCO)[C@@H](OCCO)[C@@H]1OCCO.OC[C@H]1O[C@H](O)[C@H](O)[C@@H](O)[C@@H]1O [PENTASTARCH]
> 46 | CC(=O)OCC1=C(C(=O)O)N2C(=O)[C@@H](NC(=O)Cc3cccs3)[C@H]2SC1 [Cefalotina]
> 46 | C[C@H]1O[C@H]([C@H](O)[C@@H]1O)N2\C=C(F)/C(=O)NC2=O [Doxifluridine]
> 46 | COc1ccc2cc(C(C)CO)ccc2c1 (configuration not stated) [NAPROXOL]
> 46 | CCCCCCCC/C=C\CCCCCCCC(=O)OC[C@@H](O)[C@H]1OC[C@H](O)[C@H]1O [Sorbitan, mono-(9Z)-9-octadecenoate]
> 46 | CC(=O)Nc1ccc(OC(C)=O)cc1 [Diacetamate]
> 46 | O=C(O)COC(=O)Cc1ccccc1Nc1c(Cl)cccc1Cl [Aceclofenac]
> 46 | CC1(C)S[C@H]2[C@H](NC(=O)C3(N)CCCCC3)C(=O)[N@]2[C@H]1C(O)=O [Cyclacillin]
> 46 | COc1cccc2c1[C@@H]1CN(CCCCn3c(=O)[nH]c4c(sc5ncc(-c6ccccc6)nc54)c3=O)C[C@@H]1CO2 [Fiduxosin hydrochloride]
> 46 | COc1ccc([C@@H]2Sc3ccccc3N(CCN(C)C)C(=O)[C@@H]2OC(C)=O)cc1 [DILTIAZEM]
